Tests used:
Bel-7402 = test: Tumor cell proliferation (MTS), Bel-7402; type: cell-based; details: Homo sapiens, 72 hours, complete medium
Method: (§1) Measurement of In Vivo Cell Proliferation:
(§2) Tumor cells were trypsinized and plated into 96-well plates at 3,000 per well and incubated in complete medium with 10% FBS for 24 hours. Compounds were added over a final concentration range of 100 μmol/L to 100 nmol/L in 0.1% DMSO and incubated for 72 hours in complete medium. The effects on proliferation were determined by addition of MTS reagent (Promega) according to the instruction, incubation for 2 hours at 37° C. in CO2 incubator, and record the absorbance at 490 nm using an ELISA plate reader.
(§3) Human Cell Lines are Listed Below:
Bel-7402: Hepatocellular carcinoma

[1] = test system: human HCT-8 colon cancer xenograft; test: Antitumor activity of compounds 33 and 34, HCT-8 xenograft (Example 54); type: in vivo, nu/nu mice
Method: (§4) The antitumor activity of compound 33 and compound 34 were measured in human HCT-8 colon cancer xenograft model. The female nu/nu mice of 18˜20 g were fed by normal diet for 3 days. Then the cultured HCT-8 human colon cancer cells were implanted into the armpit of 50 mice. When tumors had reached approximately 100 mm^3, the mice were divided into 6 groups randomly. Each group has 8 mice. One group was treated with vehicle. One group was treated with sutent, the positive control drug. Two groups were treated with compound 33. The other two groups were treated with compound 34. Each group was dosed orally once a day for 20 days. Tumor volumes as established by caliper measurements were recorded twice per week, along with body weights. At the end of study, the mice were killed, and tumors were weighed. The tumor growth inhibition of each group was calculated using the formula {[(the average tumor weight of vehicle group)−(the average tumor weight of drug group)]/(the average tumor weight of vehicle group)}×100%.

human PDGFRβ = molecular target: T1, human PDGFRβ (Homo sapiens, UniProt P09619); test: PDGF dependent cell proliferation (MTS); type: cell-based; details: PDGFRβ NIH-3T3 cells, PDGF BB 50 ng/ml, 72 hours, serum-free medium; read-out: GI50 nM (PDGF ligand-dependent cell proliferation)
T1 construct: expressed in transfected cells
T1 sequence (P09619 33-1106): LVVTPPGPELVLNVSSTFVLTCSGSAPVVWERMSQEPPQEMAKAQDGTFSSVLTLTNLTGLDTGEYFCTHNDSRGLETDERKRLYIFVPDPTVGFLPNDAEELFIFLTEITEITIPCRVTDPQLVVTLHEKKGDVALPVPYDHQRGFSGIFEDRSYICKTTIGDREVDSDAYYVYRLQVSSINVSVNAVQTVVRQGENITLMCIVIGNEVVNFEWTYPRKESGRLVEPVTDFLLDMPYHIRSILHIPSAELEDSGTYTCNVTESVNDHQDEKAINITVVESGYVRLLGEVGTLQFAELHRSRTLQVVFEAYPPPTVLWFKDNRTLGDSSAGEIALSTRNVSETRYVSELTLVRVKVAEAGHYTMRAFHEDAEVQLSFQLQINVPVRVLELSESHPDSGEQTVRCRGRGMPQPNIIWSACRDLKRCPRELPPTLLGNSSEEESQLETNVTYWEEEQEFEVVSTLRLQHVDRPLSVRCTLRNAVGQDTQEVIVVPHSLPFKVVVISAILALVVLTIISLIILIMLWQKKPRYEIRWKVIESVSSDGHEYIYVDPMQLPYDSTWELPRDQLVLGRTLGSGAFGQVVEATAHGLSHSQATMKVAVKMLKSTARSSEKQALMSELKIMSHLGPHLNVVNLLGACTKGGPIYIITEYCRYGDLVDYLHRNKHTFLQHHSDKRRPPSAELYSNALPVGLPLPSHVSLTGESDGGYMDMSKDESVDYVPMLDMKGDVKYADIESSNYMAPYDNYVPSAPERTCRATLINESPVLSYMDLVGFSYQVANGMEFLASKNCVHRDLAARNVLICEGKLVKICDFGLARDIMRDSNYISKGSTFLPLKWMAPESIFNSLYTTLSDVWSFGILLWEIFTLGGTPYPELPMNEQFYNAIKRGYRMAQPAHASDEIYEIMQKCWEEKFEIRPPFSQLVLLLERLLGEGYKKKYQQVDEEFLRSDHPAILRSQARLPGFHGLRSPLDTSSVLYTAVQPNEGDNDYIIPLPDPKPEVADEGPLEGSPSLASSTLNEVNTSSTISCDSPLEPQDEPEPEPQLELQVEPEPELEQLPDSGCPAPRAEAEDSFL
Method: PDGF Dependent Cell Proliferation:
NIH-3T3 mouse fibroblasts cell line engineered to stably express human PDGFIRβ was constructed and used to evaluate PDGF dependent cell proliferation. PDGFRβ NIH-3T3 cells were plated into 96-well plates at 5,000 per well and incubated with serum-free medium for 24 hours. Compounds and PDGF BB (50 ng/ml) were added and incubated for 72 hours in serum-free medium. The effects on proliferation were determined by addition of MTS reagent (Promega) according to the instruction, incubation for 2 hours at 37° C. in CO2 incubator, and record the absorbance at 490 nm using an ELISA plate reader.

[2] = test system: total HDAC enzyme (HeLa extract); test: In vitro inhibition of total HDAC enzyme activity (HDAC Fluorimetric Assay/Drug Discovery Kit); type: biochemical
Method: Measurement of In Vitro Inhibition of Total HDAC Enzyme Activity:
The in vitro inhibition of total HDAC enzyme was determined by HDAC Fluorimetric Assay/Drug Discovery Kit (BIOMOL) according to manufacture's instruction. • 1. Add Assay buffer, diluted trichostatin A or test inhibitor to appropriate wells of the microtiter plate. Following table lists examples of various assay types and the additions required for each test.
• 2. Add diluted HeLa extract or other HDAC sample to all wells except those that are to be “No Enzyme Controls” (Blank). • 3. Allow diluted Fluor de Lys™ Substrate and the samples in the microtiter plate to equilibrate to assay temperature (25° C.). • 4. Initiate HDAC reactions by adding diluted substrate (25 μl) to each well and mixing thoroughly. • 5. Allow HDAC reactions to proceed for desired length of time and then stop them by addition of Fluor de Lys™ Developer (50 μl). Incubate plate at room temperature (25° C.) for 10-15 min. • 6. Read samples in a microtiter-plate reading fluorimeter capable of excitation at a wavelength in the range 350-380 nm and detection of emitted light in the range 440-460 nm. Measurement of In Vivo Inhibition of HDAC Subtype Activity: […]

[3] = Body weight in HCT-8 xenograft study (Example 54); type: in vivo, nu/nu mice
Method: as §4

HUVEC cells = test: VEGF dependent cell proliferation (MTS); type: cell-based; details: Homo sapiens, VEGF 165 50 ng/ml, 72 hours, serum-free medium, read-out: GI50 nM (VEGF ligand-dependent cell proliferation)
Method: VEGF Dependent Cell Proliferation:
HUVEC cells were plated into 96-well plates at 6,000 per well and incubated with serum-free medium for 2 hours. Compounds and VEGF 165 (50 ng/ml) were added and incubated for 72 hours in serum-free medium. The effects on proliferation were determined by addition of MTS reagent (Promega) according to the instruction, incubation for 2 hours at 37° C. in CO2 incubator, and record the absorbance at 490 nm using an ELISA plate reader.

MCF-7 = test: Tumor cell proliferation (MTS), MCF-7; type: cell-based; details: Homo sapiens, MCF7; 72 hours, complete medium
Method: as §1, §2, §3
MCF-7: Mammary gland adenocarcinoma

A549 = test: Tumor cell proliferation (MTS), A549; type: cell-based; details: Homo sapiens, 72 hours, complete medium
Method: as §1, §2, §3
A549: Non small cell lung carcinoma

HCT-8 = test: Tumor cell proliferation (MTS), HCT-8; type: cell-based; details: Homo sapiens, 72 hours, complete medium
Method: as §1, §2, §3
HCT-8: Ileocecal colorectal adenocarcinoma

A-498 = test: Tumor cell proliferation (MTS), A-498; type: cell-based; details: Homo sapiens, A498; 72 hours, complete medium
Method: as §1, §2

Class I HDAC = test: P21 reporter gene assay in HeLa cells; type: cell-based; details: 24 hours
Method: HDAC subtype selectivity inhibition assay of tested compounds was carried out by several reporter gene assays experiments. Briefly, HeLa cells were seeded in 96-well plates the day before transfection to give a confluence of 50-80%. Cells were transfected with one of reporter gene plasmid containing a promoter sequence or response element upstream of a luciferase gene construct using FuGene6 transfection reagent according to the manufacturer's instruction (Roche). The promoters or response elements including p21-promoter was fused upstream to the luciferase gene reporter construct. For normalizing the transfection efficiency, a GFP expression plasmid was cotransfected. Cells were allowed to express protein for 24 hours followed by addition of individual compounds or the vehicle (DMSO). 24 hours later the cells were harvested, and the luciferase assay and GFP assay were performed using corresponding assay kits according to the manufacturer's instructions (Promega).

[4] = Body weight in HCT-8 xenograft study (Example 52); type: in vivo, nu/nu mice; details: 40 mg/kg orally once a day for 20 days
Method: as §4, with “31 was” for “33 and compound 34 were”, “Two groups were treated with compound 33. The other two groups were treated with compound 34.” left out

[5] = Body weight in SSMC7721 xenograft study (Example 53); type: in vivo, nu/nu mice; details: 40 mg/kg orally once a day for 30 days
Method: (§5) The antitumor activity of compound 31 was measured in human SSMC7721 liver cancer xenograft model. The female nu/nu mice of 18˜20 g were fed by normal diet for 3 days. Then the cultured SSMC7721 human liver cancer cells were implanted into the armpit of 50 mice. […] One group was treated with vehicle. One group was treated with sutent, the positive control drug. […] Each group was dosed orally once a day for 30 days. Tumor volumes as established by caliper measurements were recorded twice per week, along with body weights. At the end of study, the mice were killed, and tumors were weighed. The tumor growth inhibition of each group was calculated using the formula {[(the average tumor weight of vehicle group)−(the average tumor weight of drug group)]/(the average tumor weight of vehicle group)}×100%.

[6] = Body weight in A549 xenograft study (Example 51); type: in vivo, nu/nu mice; details: 40 mg/kg orally once a day for 24 days
Method: The antitumor activity of compound 31 was measured in human A549 lung cancer xenograft model. […] Then the cultured A549 human lung cancer cells were implanted into the armpit of 50 mice. When tumors had reached approximately 6 mm in diameter, the mice were divided into 6 groups randomly. Each group has 8 mice. One group was treated with vehicle. One group was treated with sutent, the positive control drug. […] Each group was dosed orally once a day for 24 days. Tumor volumes as established by caliper measurements were recorded twice per week, along with body weights. At the end of study, the mice were killed, and tumors were weighed. The tumor growth inhibition of each group was calculated using the formula {[(the average tumor weight of vehicle group)-(the average tumor weight of drug group)]/(the average tumor weight of vehicle group)}×100%.

[7] = Body weight in HCT-8 xenograft study (Example 55); type: in vivo, nu/nu mice; details: 40 mg/kg orally once a day for 20 days
Method: as §4, with “37” for “34”, “When tumors had reached approximately 100 mm^3, the mice were divided into 6 groups randomly. Each group has 8 mice.” left out, “37. Compound 33 was administered twice a day with an interval of 6 hours. Other drugs and vehicle were administered once a day.” for “34.”, “orally” for “orally once a day”

[8] = test system: human SSMC7721 liver cancer xenograft; test: Antitumor activity of compound 31, SSMC7721 xenograft (Example 53); type: in vivo, nu/nu mice; details: 40 mg/kg orally once a day for 30 days
Method: as §5

[9] = test system: human HCT-8 colon cancer xenograft; test: Antitumor activity of compounds 33 and 37, HCT-8 xenograft (Example 55); type: in vivo, nu/nu mice; details: 40 mg/kg orally once a day for 20 days
Method: as §4, with “37” for “34”, “When tumors had reached approximately 100 mm^3, the mice were divided into 6 groups randomly. Each group has 8 mice.” left out, “37. Compound 33 was administered twice a day with an interval of 6 hours. Other drugs and vehicle were administered once a day.” for “34.”, “orally” for “orally once a day”

[10] = Body weight in SSMC7721 xenograft study (Example 56); type: in vivo, nu/nu mice; details: 40 mg/kg orally once a day for 30 days
Method: The antitumor activity of compound 33 and compound 37 were measured in human SSMC7721 liver cancer xenograft model. The female nu/nu mice of 18˜20 g were fed by normal diet for 3 days. Then the cultured SSMC7721 human liver cancer cells were implanted into the armpit of 50 mice. […] Each group has 8 mice. One group was treated with vehicle. One group was treated with sutent, the positive control drug. Two groups were treated with compound 33. The other two groups were treated with compound 37. Each group was dosed orally once a day for 30 days. Tumor volumes as established by caliper measurements were recorded twice per week, along with body weights. At the end of study, the mice were killed, and tumors were weighed. The tumor growth inhibition of each group was calculated using the formula {[(the average tumor weight of vehicle group)−(the average tumor weight of drug group)]/(the average tumor weight of vehicle group)}×100%.

[11] = 30 mg/kg orally once a day for 20 days
[12] = 60 mg/kg orally once a day for 20 days
[13] = 40 mg/kg orally once a day for 20 days

For `COc1ccc2c(Oc3ccc4c(C(=O)NCc5ccc(C(=O)Nc6ccccc6N)cn5)cccc4c3)ccnc2c1` [Example 34], which GI50 (Bel-7402) is on record?
Its GI50 is 17.7 µM.

What about the “TGI (%) Tumor growth inhibition” value [1, 11] of the same molecule?
The value was 3.07%.

What about the “Tumor weight” value [1, 11] of the same molecule?
The value was 3.95 ± 0.73 g.

And the “TGI (%) Tumor growth inhibition” value [1, 12]?
Its value is 32.7%.

What about the “Tumor weight” value [1, 12] of the same molecule?
Its value is 2.74 ± 0.77 g.

What about the GI50 (human PDGFRβ) of the same molecule?
The GI50 was 248 nM.

What about the “% inhibition of total HDAC enzyme activity at 30 μM” value [2] of the same molecule?
The value was 38.8%.

And the “Body weight (g) end” value [3, 11]?
The value was 21.2 ± 1.9 g.

And the “Body weight (g) start” value [3, 11]?
The value was 19.7 ± 1.2 g.

What about the “Body weight (g) end” value [3, 12] of the same molecule?
The value was 21.6 ± 2.3 g.

What about the “Body weight (g) start” value [3, 12] of the same molecule?
Its value is 19.6 ± 1.1 g.

And the GI50 (HUVEC cells)?
Its GI50 is 90 nM.

What about the GI50 (MCF-7) of the same molecule?
The GI50 was 5.2 µM.

And the GI50 (A549)?
Its GI50 is 11.2 µM.

What about the GI50 (HCT-8) of the same molecule?
The GI50 was 5.5 µM.

What about the GI50 (A-498) of the same molecule?
The GI50 was 7.9 µM.

What about the “Class I HDAC (P21 reporter assay) Fold Induction at 10 μM” value (Class I HDAC) of the same molecule?
Its value is 5.0 Fold.

What does the source list for `CCN(CC)CCNC(=O)c1c(C)[nH]c(/C=C2\C(=O)Nc3ccc(F)cc32)c1C` [Sutent, reference compound]?
Body weight (g) end ([4]; end): 22.4 ± 1.1 g; Body weight (g) start ([4]; start): 21.5 ± 0.7 g; Body weight (g) end ([5]; end): 24.8 ± 1.2 g; Body weight (g) start ([5]; start): 21.0 ± 0.8 g; Body weight (g) end ([6]; end): 24.4 ± 2.3 g; Body weight (g) start ([6]; start): 20.3 ± 1.4 g; Body weight (g) end [3, 13]: 22.1 ± 1.5 g; Body weight (g) start [3, 13]: 20.6 ± 1.2 g; Body weight (g) end ([7]; end): 23.7 ± 0.8 g; Body weight (g) start ([7]; start): 21.3 ± 0.6 g; TGI (%) Tumor growth inhibition [8]: 70.3%; Tumor weight [8]: 1.00 ± 0.68 g; TGI (%) Tumor growth inhibition [9]: 95.3%; Body weight (g) end ([10]; end): 24.0 ± 0.6 g; Body weight (g) start ([10]; start): 21.2 ± 1.1 g
